According to patent US20260069584A1, “METHODS OF TREATING CHRONIC MYELOID LEUKEMIA USING THE TYROSINE KINASE INHIBITOR VODOBATINIB” (Sun Pharma Advanced Research Company Ltd., priority 2022, published 2026):
Where two headings read alike, the source gives them in different places.

Columns and labels:
[1] = system: cell lines expressing Ph+ wild-type and mutant forms of BCR-ABL1; assay: Growth inhibition of cell lines; type: cell-based
[2] = SAD study in healthy male volunteers: safety and tolerability; type: in vivo, human; conditions: single-dose 6 mg, 12 mg and 24 mg
Protocol: (§1) Initially in the single ascending dose (SAD) study the safety, tolerability, and pharmacokinetics of the compound of Formula I at 6 mg, 12 mg, and 24 mg doses in healthy human male volunteers were evaluated. In this study, the healthy male volunteers within the mean age group of 28.7-35 years were orally administered an investigational medicinal product (IMP) or a placebo after an overnight fast (of at least 8 hours). The IMP used in this study was a hard gelatin capsule comprising the compound of Formula I of varying sizes containing either 6 mg or 24 mg of the compound of Formula I and the excipients. For the 12 mg dose, two capsules of 6 mg were used. The placebo formulation containing the excipients matched the compound of Formula I capsules in shape, size, and color. […] The median time of maximum concentration (Tmax: 2.5-3 hours, across dose range) was independent of the dose level. Dose-related increases in exposure (AUC and Cmax) were observed. […] The inter-subject variability, for the PK parameters, was generally higher in the 12 mg dose group when compared with that in the 6 mg and 24 mg dose groups (Table 07, and FIG. 1)
There were no clinically significant changes in laboratory parameters, and no clinically significant changes in vital signs or electrocardiogram were recorded for any subject.

[3] = Single ascending dose (SAD) study in healthy male volunteers: pharmacokinetics; type: in vivo, human; conditions: for Dose proportionality, Slope Estimate: 6 to 24 mg, n 18, power model; for Dose proportionality, Coefficient of determination / Dose proportionality, Intercept Estimate: n 18
Protocol: as §1
Referring to FIG. 1, The dose proportionality assessment using ANCOVA was assessed in the PK analysis set. […] The estimates for the slope for all exposure parameters were between 0.9833 and 1.016.

[4] = system: Ph+ CML (CP CML, AP CML, and BP CML); assay: Phase 2 open-label study (Part C) in CML resistant or intolerant to ≥3 prior TKIs including ponatinib: disease response; type: in vivo, human
Protocol: A multicenter open-label study in subjects with CML (CP CML, AP CML, and BP CML) who documented resistance or intolerance to more than or equal to 3 prior TKIs one of which included ponatinib was performed. The subjects for this were grouped as follows: • a) Cohort A—Ph+ CML: Chronic phase (CP CML) cohort • b) Cohort B—Ph+ CML: Accelerated phase (AP) cohort • c) Cohort C—Ph+ CML: Blast phase (BP) cohort.
The primary objective of this study was to evaluate the efficacy of the compound of Formula I in CP CML patients by cytogenetic outcomes and in AP CML and BP CML patients by hematologic outcomes. Secondary objectives included evaluation of anti-leukemic efficacy of compound of Formula I by molecular outcomes, hematological outcomes in CP CML patients, and by cytogenetic outcomes in AP CML and BP CML; time to first hematologic response; duration of response; progression-free survival (PFS) and overall survival (OS), population PK of the compound of Formula I and safety.
The selection criteria for subjects (Both inclusion and exclusion) were the same as those set forth above study, except for the following: Subjects had to be previously treated with ≥3 prior TKIs including the 3rd generation TKI, ponatinib; subjects with Ph+ ALL were not included in this study; subjects with presence of T3151 mutations were excluded in the study. Limited to no response on a TKI therapy is reported in CML patients post-ponatinib treatment (Leuk Lymphoma 2018 June; 59 (6): 1312-1322).
Patients were followed for survival by telephone survey.
The Compound of Formula I with 174 mg as capsules was administered orally once daily continuously in 4-week cycles. Patients self-administered the compound of Formula I on an outpatient basis at approximately the same time each morning after overnight fasting or fasting ˜2 hours before and after dosing.
Bone marrow aspirate samples were sent for review of cytogenetics by conventional Giemsa staining method (karyotyping). Fluorescence in situ hybridization (FISH) was performed on bone marrow aspirates only in cases of subjects who had achieved complete cytogenetic response (confirmed by karyotyping) with the studied drug and who had minimum residual disease. FISH was also used if a sufficient sample was not available for conducting the Giemsa staining method (karyotyping).
Standard cytogenetic methods were used to determine the presence of the Ph+ and its presence (percentage) in the bone marrow. At least 20 cells in metaphase were evaluated for karyotyping. Bone marrow cytogenetics was scheduled to be performed within 7 days of the scheduled date irrespective of missed doses or disease or dose-associated AEs.
Molecular response monitoring (MMR) using PCR for BCR-ABL copy number was performed on the collected blood samples and was assessed using the international scale (IS).
The hematologic response was evaluated by peripheral blood utilizing local laboratory results.

[5] = Oral toxicity study in Wistar Rats; conditions: rat, in vivo
[6] = male, human, plasma, oral, 6 mg (N = 6), mean
[7] = male, human, plasma, oral, 12 mg (N = 6), mean
[8] = male, human, plasma, oral, 24 mg (N = 6), mean

SMILES: Cc1ccc(C(=O)NNC(=O)c2c(C)cccc2Cl)cc1C#Cc1cnc2ccccc2c1 [compound of Formula I, N′-(2-chloro-6-methylbenzoyl)-4-methyl-3-[2-(3-quinolyl)ethynyl]-benzohydrazide]
- effect on cell lines [1]: growth inhibition
- withdrawal criteria based on QTcF prolongation or safety laboratory tests [2]: No subject reached the subject withdrawal criteria
- safety and tolerability ([2]; healthy subjects): safe and well tolerated
- CL/F ([3]; 6 mg (N = 6), geometric mean): 3.708 L/h
- AUC(0-inf)/D ([3]; 6 mg (N = 6), mean): 289 [ng/mL × hour]/mg
- CL/F ([3]; 12 mg (N = 6), geometric mean): 4.956 L/h
- AUC(0-inf)/D ([3]; 12 mg (N = 6), mean): 230.3 [ng/mL × hour]/mg
- Tmax ([3]; 12 mg (N = 6), median): 3 h
- CL/F ([3]; 24 mg (N = 6), geometric mean): 3.8 L/h
- AUC(0-inf)/D ([3]; 24 mg (N = 6), mean): 274.3 [ng/mL × hour]/mg
- Tmax ([3]; 24 mg (N = 6), median): 2.75 h
- Dose proportionality, Slope Estimate ([3]; AUC(0-inf) (ng*h/mL)): 0.9833
- Dose proportionality, Coefficient of determination ([3]; AUC(0-inf) (ng*h/mL)): 0.6145
- Dose proportionality, Intercept Estimate ([3]; AUC(0-inf) (ng*h/mL)): 5.534
- Dose proportionality, Slope Estimate ([3]; AUC(0-last) (ng*h/mL)): 1.016
- Dose proportionality, Coefficient of determination ([3]; AUC(0-last) (ng*h/mL)): 0.6425
- Dose proportionality, Intercept Estimate ([3]; AUC(0-last) (ng*h/mL)): 5.389
- Dose proportionality, Slope Estimate ([3]; Cmax (ng/mL)): 0.9884
- Dose proportionality, Coefficient of determination ([3]; Cmax (ng/mL)): 0.6832
- Dose proportionality, Intercept Estimate ([3]; Cmax (ng/mL)): 3.470
- apparent systemic clearance (CL/F) ([3]; across dose range 6, 12, 24 mg): 3.708 to 4.956 L/h
- Vd/F ([3]; male, human, plasma, oral, 6 mg, 6 mg (N = 6), geometric mean, read-out: Vz/F): 91.6 L
- half-life ([3]; male, human, plasma, oral, 6 mg, 6 mg (N = 6), geometric mean, read-out: t1/2 (converted)): 17.1 h
- AUC(0-t) ([3]; male, human, plasma, oral, 6 mg, 6 mg (N = 6), mean, read-out: AUC(0-24)): 1140 ng·h/mL
- AUC(0-t) ([3]; male, human, plasma, oral, 6 mg, 6 mg (N = 6), mean, read-out: AUC(0-last)): 1570 ng·h/mL
- Vd/F ([3]; male, human, plasma, oral, 12 mg, 12 mg (N = 6), geometric mean, read-out: Vz/F): 90.8 L
- half-life ([3]; male, human, plasma, oral, 12 mg, 12 mg (N = 6), geometric mean, read-out: t1/2 (converted)): 12.7 h
- AUC(0-t) ([3]; male, human, plasma, oral, 12 mg, 12 mg (N = 6), mean, read-out: AUC(0-24)): 1920 ng·h/mL
- AUC(0-t) ([3]; male, human, plasma, oral, 12 mg, 12 mg (N = 6), mean, read-out: AUC(0-last)): 2640 ng·h/mL
- Vd/F ([3]; male, human, plasma, oral, 24 mg, 24 mg (N = 6), geometric mean, read-out: Vz/F): 69.8 L
- half-life ([3]; male, human, plasma, oral, 24 mg, 24 mg (N = 6), geometric mean, read-out: t1/2 (converted)): 12.7 h
- AUC(0-t) ([3]; male, human, plasma, oral, 24 mg, 24 mg (N = 6), mean, read-out: AUC(0-24)): 4760 ng·h/mL
- AUC(0-t) ([3]; male, human, plasma, oral, 24 mg, 24 mg (N = 6), mean, read-out: AUC(0-last)): 6240 ng·h/mL
- AUC(0-t) ([3]; male, human, plasma, oral, 24 mg, SAD study, read-out: maximum value of AUC(0-24)): 6080 ng·h/mL
- half-life ([3]; male, human, plasma, oral, 24 mg, across dose range 6, 12, 24 mg, read-out: apparent terminal half-life (t1/2)): 12.7 to 17.1 h
- Vd/F ([3]; male, human, plasma, oral, 24 mg, across dose range 6, 12, 24 mg, read-out: apparent volume of distribution (Vz/F)): 69.8 to 91.6 L
- AUC(0-t) ([3]; male, human, plasma, oral, 24 mg, highest dose level (24 mg), read-out: mean AUC(0-24)): 4760 ng·h/mL
- AUC(0-inf) [3, 6]: 1740 ng·h/mL
- Cmax [3, 6]: 234 ng/mL
- Tmax ([3]; male, human, plasma, oral, 6 mg (N = 6), median, read-out: tmax): 2.5 h
- AUC(0-inf) [3, 7]: 2770 ng·h/mL
- Cmax [3, 7]: 285 ng/mL
- AUC(0-inf) [3, 8]: 6580 ng·h/mL
- Cmax [3, 8]: 909 ng/mL
- Tmax ([3]; male, human, plasma, oral, across dose range 6, 12, 24 mg, read-out: median time of maximum concentration (Tmax)): 2.5 to 3 h
- absorption after oral administration ([3]; single dose 6 mg, 12 mg, or 24 mg): rapidly absorbed
- Best Cytogenetic Response: Complete Cytogenetic Response ([4]; 174 mg (N = 7)): 1 (14.3%)
- Best Cytogenetic Response: Major Cytogenetic Response ([4]; 174 mg (N = 7)): 2 (28.6%)
- Best Cytogenetic Response: Minimal Cytogenetic Response ([4]; 174 mg (N = 7)): 0
- Best Cytogenetic Response: Minor Cytogenetic Response ([4]; 174 mg (N = 7)): 0
- Best Cytogenetic Response: No Response ([4]; 174 mg (N = 7)): 2 (28.6%)
- Best Cytogenetic Response: Partial Cytogenetic Response ([4]; 174 mg (N = 7)): 1 (14.3%)
- Best Hematologic Response: Complete Hematologic Response ([4]; 174 mg (N = 7)): 6 (85.7%)
- Best Hematologic Response: Major Hematologic Response ([4]; 174 mg (N = 7)): 6 (85.7%)
- Best Hematologic Response: No Evidence of Leukemia ([4]; 174 mg (N = 7)): 0
- Best Hematologic Response: No Response ([4]; 174 mg (N = 7)): 1 (14.3%)
- Best Molecular Response: Complete Response ([4]; 174 mg (N = 7)): 0
- Best Molecular Response: Major Response ([4]; 174 mg (N = 7)): 1 (14.3%)
- Best Molecular Response: No Response ([4]; 174 mg (N = 7)): 4 (57.1%)
- Major molecular response (MMR) as best response ([4]; 1 of the 7 enrolled subjects, 174 mg): 14.3%
- Complete hematological response (CHR) as best response ([4]; 2 of the 2 AP-CML enrolled subjects): 100%
- Major cytogenetic response (MCyR) as best response ([4]; 2 of the 7 enrolled subjects, 174 mg): 28.6%
- major hematological response (MaHR) as best response ([4]; 6 of the 7 enrolled subjects, 174 mg): 85.7%
- Major molecular response (MMR) as best response ([4]; 6 of the 13 enrolled CP-CML subjects): 46.2%
- achieved MaHR in the study ([4]; 7 enrolled subjects, 174 mg): 5 subjects
- came into the study in MaHR and maintained it ([4]; 7 enrolled subjects, 174 mg): 1 subject
- Major cytogenetic response (MCyR) as best response ([4]; 11 CP-CML enrolled subjects): 84.6%
- Complete hematological response (CHR) as best response ([4]; 13 of the 15 CP-CML enrolled subjects): 86.7%
- achieved CHR in study ([4]; CP-CML, of 13): 9 subjects
- came into the study in CHR and maintained it ([4]; CP-CML, of 13): 4 subjects
- developed CCyR ([4]; CP-CML, of the 13 subjects): 61.5%
- NOAEL [5]: 100 mg/kg/day
